Test system: Coptotemes formosanus
Test: Indoor testing of termiticidal effect of treated soil (Japan Wood Preserving Association standard number 13, 1992)
Format: in vivo
Protocol: The following tests (test numbers 1 to 16) were carried out based on testing methods and qualitative standards (I) for termiticidal effects of termiticide for soil treating (Japan Wood Preserving Association standard number 13, 1992). In the tests using entomopathogenic nematodes, operation of diffusive volatilization was not carried out.
The bottom portions of these two glass bottles are connected with a glass tube (3) of 15 mm in diameter and 100 mm in length.
In one of the glass bottles of the testing container, about 60 g of a non-treated soil (5) having an adjusted moisture content of about 25% is placed, and in the other glass bottle, about 3 g of Japanese red pine wood blocks are placed, and in the central 50 mm portion of the glass tube, a treated soil for testing (6) is placed.
In the glass bottle containing a non-treated soil, Coptotemes formosanus taken out from a nest was placed, and the upper portions of the glass bottles were covered with aluminum foil. Cumulative mortality rates after 0, 3, 5, 7, 10 and 14 days, respectively, were examined. […]

[1] = 10 ppm of insect-growth regulator singly in treated soil, 0 days elapsed
[2] = 10 ppm of insect-growth regulator singly in treated soil, 3 days elapsed
[3] = 10 ppm of insect-growth regulator singly in treated soil, 5 days elapsed
[4] = 10 ppm of insect-growth regulator singly in treated soil, 7 days elapsed
[5] = 10 ppm of insect-growth regulator singly in treated soil, 10 days elapsed
[6] = 10 ppm of insect-growth regulator singly in treated soil, 14 days elapsed
[7] = 20 ppm of insect-growth regulator singly in treated soil, 0 days elapsed
[8] = 20 ppm of insect-growth regulator singly in treated soil, 3 days elapsed
[9] = 20 ppm of insect-growth regulator singly in treated soil, 5 days elapsed
[10] = 20 ppm of insect-growth regulator singly in treated soil, 7 days elapsed
[11] = 20 ppm of insect-growth regulator singly in treated soil, 10 days elapsed
[12] = 20 ppm of insect-growth regulator singly in treated soil, 14 days elapsed
[13] = 50 ppm of insect-growth regulator singly in treated soil, 0 days elapsed
[14] = 50 ppm of insect-growth regulator singly in treated soil, 3 days elapsed
[15] = 50 ppm of insect-growth regulator singly in treated soil, 5 days elapsed
[16] = 50 ppm of insect-growth regulator singly in treated soil, 7 days elapsed
[17] = 50 ppm of insect-growth regulator singly in treated soil, 10 days elapsed
[18] = 50 ppm of insect-growth regulator singly in treated soil, 14 days elapsed

Row | Compound | Cumulative mortality rate (%) after a lapse of days [1] [%] | Cumulative mortality rate (%) after a lapse of days [2] [%] | Cumulative mortality rate (%) after a lapse of days [3] [%] | Cumulative mortality rate (%) after a lapse of days [4] [%] | Cumulative mortality rate (%) after a lapse of days [5] [%] | Cumulative mortality rate (%) after a lapse of days [6] [%] | Cumulative mortality rate (%) after a lapse of days [7] [%] | Cumulative mortality rate (%) after a lapse of days [8] [%] | Cumulative mortality rate (%) after a lapse of days [9] [%] | Cumulative mortality rate (%) after a lapse of days [10] [%] | Cumulative mortality rate (%) after a lapse of days [11] [%] | Cumulative mortality rate (%) after a lapse of days [12] [%] | Cumulative mortality rate (%) after a lapse of days [13] [%] | Cumulative mortality rate (%) after a lapse of days [14] [%] | Cumulative mortality rate (%) after a lapse of days [15] [%] | Cumulative mortality rate (%) after a lapse of days [16] [%] | Cumulative mortality rate (%) after a lapse of days [17] [%] | Cumulative mortality rate (%) after a lapse of days [18] [%]
1 | O=C(NC(=O)c1c(F)cccc1F)Nc1ccc(Cl)cc1 [Diflubenzuron, N-[[(4-chlorophenyl)amino]carbonyl]-2,6-difluorobenzamide] | 0 | 10 | 15 | 20 | 40 | 50 | 0 | 25 | 35 | 40 | 50 | 60 | 0 | 35 | 45 | 50 | 55 | 70
2 | O=C(NC(=O)c1c(F)cccc1F)Nc1cc(Cl)c(F)c(Cl)c1F [Teflubenzuron, N-[[(3,5-dichloro-2,4-difluorophenyl)amino]carbonyl]-2,6-difluorobenzamide] | 0 | 20 | 25 | 30 | 30 | 55 | 0 | 30 | 45 | 50 | 60 | 70 | 0 | 40 | 60 | 70 | 80 | 90
3 | O=C(NC(=O)c1c(F)cccc1F)Nc1ccc(OC(F)(F)C(F)OC(F)(F)F)c(Cl)c1 (centres unmarked) [novaluron, N-[[[3-chloro-4-(1,1,2-trifluoro-2-trifluoromethoxyethoxy)phenyl]amino]carbonyl]-2,6-difluorobenzamide] | 0 | 20 | 30 | 35 | 40 | 80 | 0 | 30 | 45 | 100 |  |  | 0 | 40 | 60 | 100 |  | 
